Among the data in patent publication US12435057B2, “Triazole carboxylic acids as LPA antagonists” (BRISTOL-MYERS SQUIBB COMPANY, priority 2019, dated 2025) are IC50 values, retold here.

The target of this assay is T1, human LPA1 (Homo sapiens, UniProt Q92633).
T1 construct: expressed in transfected cells; host or cells: Chinese hamster ovary (CHO) cells
The experiment in a line: LPA1 functional antagonist assay (calcium flux). The format is cell-based. The note with it: CHO cells overexpressing human LPA1; inhibition of calcium flux induced by 10 nM LPA; read-out: hLPA1 IC50. On the procedure: The effectiveness of compounds of the present invention as LPA1 inhibitors can be determined in an LPA1 functional antagonist assay as follows: • Chinese hamster ovary cells overexpressing human LPA1 were plated overnight (15,000 cells/well) in poly-D-lysine coated 384-well microplates (Greiner bio-one, Cat #781946) in DMEM/F12 medium (Gibco, Cat #11039). Following overnight culture, cells were loaded with calcium indicator dye (AAT Bioquest Inc, Cat #34601) for 30 minutes at 37° C. The cells were then equilibrated to room temperature for 30 minutes before the assay. Test compounds solubilized in DMSO were transferred to 384 well non-binding surface plates (Corning, Cat #3575) using the Labcyte Echo acoustic dispense and diluted with assay buffer [[…] with calcium/magnesium (Gibco Cat #14025-092), 20 mM HEPES (Gibco Cat #15630-080) and 0.1% fatty acid free BSA (Sigma Cat #A9205)] to a final concentration of 0.5% DMSO. Diluted compounds were added to the cells by FDSS6000 (Hamamatsu) at final concentrations ranging from 0.08 nM to 5 μM. and were then incubated for 20 min at room temperature at which time LPA (Avanti Polar Lipids Cat #857130C) was added at final concentrations of 10 nM to stimulate the cells. The compound IC50 value was defined as the concentration of test compound which inhibited 50% of the calcium flux induced by LPA alone. IC50 values were determined by fitting data to a 4-parameter logistic equation (GraphPad Prism, San Diego CA). b. In Vivo Assays LPA Challenge with Plasma Histamine Evaluation.
For orientation: Calcium flux is commonly read through the fluorescence of an indicator in the cells.

T1 sequence (Q92633 whole entry): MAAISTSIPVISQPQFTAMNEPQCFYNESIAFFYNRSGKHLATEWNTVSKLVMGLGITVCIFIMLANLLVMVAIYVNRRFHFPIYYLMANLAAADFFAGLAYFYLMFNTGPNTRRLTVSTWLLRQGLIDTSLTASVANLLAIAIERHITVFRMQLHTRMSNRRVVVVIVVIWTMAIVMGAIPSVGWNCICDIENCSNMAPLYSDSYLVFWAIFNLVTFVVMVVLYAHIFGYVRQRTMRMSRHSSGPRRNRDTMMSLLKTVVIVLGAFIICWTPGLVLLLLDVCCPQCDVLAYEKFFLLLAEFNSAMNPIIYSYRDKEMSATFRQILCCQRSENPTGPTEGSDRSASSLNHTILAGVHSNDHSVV

In general, IC50 refers to the midpoint of a concentration-inhibition curve. Turning to `Cc1nc(-c2nnn(C)c2COC(=O)N(C)CC2CCC2)ccc1O[C@@H]1CCC[C@@]2(C(=O)O)C[C@@H]12` (single isomer, unassigned) [Example 11], the concentration for half-maximal inhibition (IC50) stood at 0.13 µM. Under `CC(C)CN(C)C(=O)OCc1c(-c2ccc(O[C@@H]3CC[C@H]4C(C(=O)O)[C@@H]34)cn2)nnn1C` (mixture of isomers) [Example 68, (±)-(1S,2R,5R,6R)-2-((6-(5-(((isobutyl(methyl)carbamoyl)oxy)methyl)-1-methyl-1H-1,2,3-triazol-4-yl)pyridin-3-yl)oxy)bicyclo[3.1.0]hexane-6-carboxylic Acid] stands 0.239 µM. The value for `CCCCN(C)C(=O)OCc1c(-c2ccc(O[C@H]3CCO[C@@H](C(=O)O)C3)c(C)n2)nnn1C` [Example 35] was 0.644 µM; that for `Cc1nc(-c2nnn(C)c2CNc2nccc(-c3ccccn3)n2)ccc1OC1CCC2C(C(=O)O)C12` (mixture of isomers) [Example 48, (±)-(2R)-2-((2-Methyl-6-(1-methyl-54(4-(pyridin-2-yl)pyrimidin-2-yl)amino)methyl)-1H-1,2,3-triazol-4-yl)pyridin-3-yl)oxy)bicyclo[3.1.0]hexane-6-carboxylic Acid] was 0.159 µM. The value for `Cc1nc(-c2nnn(C)c2COC(=O)N(C)CC2CC2)ccc1O[C@@H]1CC[C@H]2C(C(=O)O)[C@@H]12` (some centres unmarked) [Example 59] was 0.313 µM; that for `Cc1nc(-c2nnn(C)c2COC(=O)N(C)CC2CCC2)ccc1O[C@H]1CC[C@@H]2[C@@H](C(=O)O)[C@@H]21` (single isomer, unassigned) [Example 43] was 0.015 µM.

Regarding `Cc1nc(-c2nnn(C)c2COC(=O)N(C)CC2CCC2)ccc1O[C@@H]1COC[C@@H](C(=O)O)C1` [Example 21], the IC50 was found to be 0.168 µM. Under `Cc1nc(-c2nnn(C)c2COC(=O)N(C)CC2CCC2)ccc1O[C@@H]1CC[C@H]2C(C(=O)O)[C@@H]12` (single isomer, unassigned) [Example 42] stands 0.619 µM; under `CN(CC1CCC1)C(=O)OCc1c(-c2ccc(OC3CC4C(C3)C4C(=O)O)cn2)nnn1C` (centres unmarked) [Example 66], 0.322 µM. Under `Cc1nc(-c2nnn(C)c2COC(=O)N(C)CC2CCC2)ccc1O[C@@H]1C[C@H]2C[C@H]2[C@H](C(=O)O)C1` (racemic) [Example 1, (±)-(1R,2R,4R,6R)-4-((6-(5-((((cyclobutylmethyl)(methyl)carbamoyl)oxy)methyl)-1-methyl-1H-1,2,3-triazol-4-yl)-2-methylpyridin-3-yl)oxy)bicyclo[4.1.0]heptane-2-carboxylic Acid] stands 0.027 µM; under `Cc1nc(-c2nnn(C)c2COC(=O)N(C)CC2CCC2)ccc1O[C@@H]1C[C@H](C(=O)O)C[C@@H]2C[C@@H]21` [Example 73], 0.06 µM; under `CN(C(=O)OCc1c(-c2ccc(OC3CC4C(C3)C4C(=O)O)cn2)nnn1C)C1CCCC1` (centres unmarked) [Example 65], 0.44 µM.

Regarding `CCCCCN(C)C(=O)OCc1c(-c2ccc(O[C@H]3COC[C@@H](C(=O)O)C3)c(C)n2)nnn1C` [Example 31], the 50% inhibitory concentration (IC50) was determined as 0.00229 µM.

Turning to `Cc1nc(-c2nnn(C)c2CNC(=O)OCC2CCC2)ccc1O[C@@H]1CCC2C(C(=O)O)C21` (mixture of isomers) [Example 47, (±)-(2R)-2-((6-(5-((((cyclobutylmethoxy)carbonyl)amino)methyl)-1-methyl-1H-1,2,3-triazol-4-yl)-2-methylpyridin-3-yl)oxy)bicyclo[3.1.0]hexane-6-carboxylic Acid], the IC50 was 0.191 µM. Under `Cc1nc(-c2nnn(C)c2COC(=O)NCc2ccccc2)ccc1O[C@@H]1CC[C@H]2C(C(=O)O)[C@@H]12` (some centres unmarked) [Example 63] stands 0.264 µM; under `Cc1nc(-c2nnn(C)c2COC(=O)N(C)CC2CCC2)ccc1O[C@H]1CC2C[C@H]2[C@H](C(=O)O)C1` (single isomer, unassigned) [Example 5], 0.028 µM.

`Cc1nc(-c2nnn(C)c2CNc2noc(CC3CC3)n2)ccc1O[C@H]1C[C@H](C(=O)O)[C@@H]2C[C@@H]21` [Example 15]: the half-maximal inhibitory concentration (IC50) amounted to 1.05 µM.

As for `Cc1nc(-c2nnn(C)c2COC(=O)N(C)CCC(C)C)ccc1O[C@@H]1COC[C@@H](C(=O)O)C1` [Example 20], the IC50 was 0.222 µM. Under `CCCCN(C)C(=O)OCc1c(-c2ccc(O[C@@H]3CC[C@H]4C(C(=O)O)[C@@H]34)c(C)n2)nnn1C` (some centres unmarked) [Example 58] stands 0.046 µM; under `CCCN(C)C(=O)OCc1c(-c2ccc(O[C@H]3CCO[C@H](C(=O)O)C3)c(C)n2)nnn1C` [Example 38], 2.01 µM; under `Cc1nc(-c2nnn(C)c2COC(=O)N(C)CC2CCC2)ccc1O[C@H]1C[C@@H]2C[C@@H]2[C@@H](C(=O)O)C1` (single isomer, unassigned) [Example 4], 0.907 µM. The value for `Cc1nc(-c2nnn(C)c2CNC(=O)OCc2ccccc2)ccc1O[C@@H]1CCC2C(C(=O)O)C21` (some centres unmarked) [Example 53] was 0.016 µM; that for `Cc1nc(-c2nnn(C)c2CNC(=O)OC2CCCC2)ccc1O[C@@H]1CCC2C(C(=O)O)C21` (some centres unmarked) [Example 55] was 0.083 µM; that for `CN(C(=O)OCc1c(-c2ccc(OC3CCCC4C(C(=O)O)C34)cn2)nnn1C)C1CCCC1` (racemic) [Example 74, (±)-2-((6-(5-(((Cyclopentyl(methyl)carbamoyl)oxy)methyl)-1-methyl-1H-1,2,3-triazol-4-yl)pyridin-3-yl)oxy)bicyclo[4.1.0]heptane-7-carboxylic Acid] was 0.06 µM.

With `CCCOc1ccnc(NCc2c(-c3ccc(O[C@@H]4CC[C@H]5C(C(=O)O)[C@@H]45)c(C)n3)nnn2C)n1` (some centres unmarked) [Example 57], the concentration for half-maximal inhibition (IC50) turned out to be 0.035 µM.

`Cc1nc(-c2nnn(C)c2CNc2noc(CCC3CCC3)n2)ccc1O[C@@H]1CCO[C@@H](C(=O)O)C1` (racemic) [Example 33, (±)-trans-4-((6-(5-(((5-(2-cyclobutylethyl)-1,2,4-oxadiazol-3-yl)amino)methyl)-1-methyl-1H-1,2,3-triazol-4-yl)-2-methylpyridin-3-yl)oxy)tetrahydro-2H-pyran-2-carboxylic Acid]: the 50% inhibitory concentration (IC50) turned out to be 0.263 µM. The value for `Cc1nc(-c2nnn(C)c2COC(=O)N(C)CC(C)C)ccc1O[C@@H]1CC[C@H]2C(C(=O)O)[C@@H]12` (some centres unmarked) [Example 60] was 0.313 µM. The value for `Cc1nc(-c2nnn(C)c2Cn2ncc(CC3CCCC3)n2)ccc1O[C@H]1COC[C@H](C(=O)O)C1` [Example 27] was 0.11 µM.

For `Cc1nc(-c2nnn(C)c2COC(=O)N(C)CC2CCC2)ccc1O[C@@H]1CCC[C@@]2(C(=O)O)C[C@@H]12` (racemic) [Example 10, (±)-(1R,5R,6R)-5-((6-(5-((((cyclobutylmethyl)(methyl)carbamoyl)oxy)methyl)-1-methyl-1H-1,2,3-triazol-4-yl)-2-methylpyridin-3-yl)oxy)bicyclo[4.1.0]heptane-1-carboxylic Acid], the half-maximal inhibitory concentration (IC50) is 0.188 µM. The value for `Cc1nc(-c2nnn(C)c2Cn2nncc2CC2CCCC2)ccc1O[C@H]1COC[C@H](C(=O)O)C1` [Example 25] was 0.931 µM; that for `Cc1nc(-c2nnn(C)c2COC(=O)N(C)CC2CCC2)ccc1OC1CC2C(C1)C2C(=O)O` (centres unmarked) [Example 67] was 0.262 µM. `Cc1nc(-c2nnn(C)c2Cn2cc(CC3CCCC3)nn2)ccc1O[C@H]1COC[C@H](C(=O)O)C1` [Example 26]: the IC50 came out at 0.772 µM. The value for `Cc1nc(-c2nnn(C)c2COC(=O)N(C)C2CCCC2)ccc1O[C@H]1CCO[C@H](C(=O)O)C1` [Example 39] was 0.313 µM; that for `Cc1nc(-c2nnn(C)c2COC(=O)N(C)CC2CCC2)ccc1OC1CC[C@H]2C(C(=O)O)[C@@H]12` (mixture of isomers) [Example 41, (±)-(1S,2R,5R)-2-((6-(5-((((cyclobutylmethyl)(methyl)carbamoyl)oxy)methyl)-1-methyl-1H-1,2,3-triazol-4-yl)-2-methylpyridin-3-yl)oxy)bicyclo[3.1.0]hexane-6-carboxylic Acid] was 0.019 µM. Under `CN(C(=O)OCc1c(-c2ccc(O[C@@H]3C[C@H](C(=O)O)C[C@@H]4C[C@@H]43)cn2)nnn1C)C1CCCC1` (racemic) [Example 72, (±)-(1 S,3R,5R,6S)-5-((6-(5-(((Cyclopentyl(methyl)carbamoyl)oxy)methyl)-1-methyl-1H-1,2,3-triazol-4-yl)pyridin-3-yl)oxy)bicyclo[4.1.0]heptane-3-carboxylic Acid] stands 0.08 µM; under `Cc1nc(-c2nnn(C)c2COC(=O)N(C)CC2CCC2)ccc1O[C@@H]1C[C@@H]2C[C@@H]2[C@H](C(=O)O)C1` (single isomer, unassigned) [Example 8], 0.026 µM; under `Cc1nc(-c2nnn(C)c2COC(=O)N(C)CC2CCC2)ccc1O[C@@H]1CC2C[C@H]2[C@H](C(=O)O)C1` (single isomer, unassigned) [Example 3], 0.016 µM. As to `Cc1nc(-c2nnn(C)c2COC(=O)N(C)C2CCCC2)ccc1O[C@@H]1CC[C@H]2C(C(=O)O)[C@@H]12` (some centres unmarked) [Example 62], the IC50 is 0.145 µM.
